Experimental data taken from ChEMBL document CHEMBL3734695, “Cytotoxic potential of dispirooxindolo/acenaphthoquino andrographolide derivatives against MCF-7 cell line” (Medchemcomm, 2015).
Activity calls are given as the source filed them. No cut-off for these calls is given here.

The compounds below were run on MCF7 (assay: Induction of apoptosis in human MCF7 cells assessed as ratio of depolarized to polarized mitochondrial membrane at IC50 by JC-1 dye based FACS analysis). Conditions: TDE = time-dependent effect.
Assay type: functional, cell-based

| SMILES | Activity |
| --- | --- |
| C=C1CC[C@@H]2[C@](C)(CO)[C@H](O)CC[C@@]2(C)[C@@H]1CC1CN(Cc2ccccc2)[C@@]2(C(=O)Nc3ccc(C)cc32)[C@]12C(=O)OC[C@H]2O (stereo partly specified) | tde |

Each compound was assayed on MCF7 (assay: Cell cycle arrest in human MCF7 cells assessed as accumulation at G0/G1 phase at IC50 after 48 hrs by propidium iodide staining based flow cytometric analysis (reference value: 59.5%)). Conditions: not given.
Assay type: functional

| SMILES | Activity [%] |
| --- | --- |
| C=C1CC[C@@H]2[C@](C)(CO)[C@H](O)CC[C@@]2(C)[C@@H]1CC1CN(Cc2ccccc2)[C@@]2(C(=O)Nc3ccc(C)cc32)[C@]12C(=O)OC[C@H]2O (stereo partly specified) | 37.9 |

Each compound was assayed on MCF7 (assay: Induction of apoptosis in human MCF7 cells assessed as increase in cleaved PARP-1 level at IC50 after 48 hrs by western blot analysis). Conditions: not given.
Assay type: functional, cell-based

| SMILES | Activity |
| --- | --- |
| C=C1CC[C@@H]2[C@](C)(CO)[C@H](O)CC[C@@]2(C)[C@@H]1CC1CN(Cc2ccccc2)[C@@]2(C(=O)Nc3ccc(C)cc32)[C@]12C(=O)OC[C@H]2O (stereo partly specified) | Active |

These compounds were tested on MCF7 (assay: Induction of apoptosis in human MCF7 cells assessed as dead cells at IC50 after 48 hrs by annexin V-FITC/propidium iodide staining based flow cytometric analysis (reference value: 0.2%)). Conditions: not given.
Assay type: functional

| SMILES | Activity [%] |
| --- | --- |
| C=C1CC[C@@H]2[C@](C)(CO)[C@H](O)CC[C@@]2(C)[C@@H]1CC1CN(Cc2ccccc2)[C@@]2(C(=O)Nc3ccc(C)cc32)[C@]12C(=O)OC[C@H]2O (stereo partly specified) | 2.2 |

The compounds below were run on MCF7 (assay: Induction of apoptosis in human MCF7 cells assessed as rounded cells at IC50 after 24 hrs by inverted phase contrast microscopic analysis). Conditions: not given.
Assay type: functional, cell-based

| SMILES | Activity |
| --- | --- |
| C=C1CC[C@@H]2[C@](C)(CO)[C@H](O)CC[C@@]2(C)[C@@H]1CC1CN(Cc2ccccc2)[C@@]2(C(=O)Nc3ccc(C)cc32)[C@]12C(=O)OC[C@H]2O (stereo partly specified) | Active |

What follows are compounds tested on MCF7 (assay: Induction of apoptosis in human MCF7 cells assessed as early apoptotic cells at IC50 after 24 hrs by annexin V-FITC/propidium iodide staining based flow cytometric analysis (reference value: 0.1%)). Conditions: not given.
Assay type: functional

| SMILES | Activity [%] |
| --- | --- |
| C=C1CC[C@@H]2[C@](C)(CO)[C@H](O)CC[C@@]2(C)[C@@H]1CC1CN(Cc2ccccc2)[C@@]2(C(=O)Nc3ccc(C)cc32)[C@]12C(=O)OC[C@H]2O (stereo partly specified) | 19.7 |

What follows are compounds tested on MCF7 (assay: Induction of apoptosis in human MCF7 cells assessed as viable cells at IC50 after 24 hrs by annexin V-FITC/propidium iodide staining based flow cytometric analysis (reference value: 99.8%)). Conditions: not given.
Assay type: functional

| SMILES | Activity [%] |
| --- | --- |
| C=C1CC[C@@H]2[C@](C)(CO)[C@H](O)CC[C@@]2(C)[C@@H]1CC1CN(Cc2ccccc2)[C@@]2(C(=O)Nc3ccc(C)cc32)[C@]12C(=O)OC[C@H]2O (stereo partly specified) | 79.2 |

Each compound was assayed on MCF7 (assay: Induction of apoptosis in human MCF7 cells assessed as early apoptotic cells at IC50 after 48 hrs by annexin V-FITC/propidium iodide staining based flow cytometric analysis (reference value: 0.1%)). Conditions: not given.
Assay type: functional

| SMILES | Activity [%] |
| --- | --- |
| C=C1CC[C@@H]2[C@](C)(CO)[C@H](O)CC[C@@]2(C)[C@@H]1CC1CN(Cc2ccccc2)[C@@]2(C(=O)Nc3ccc(C)cc32)[C@]12C(=O)OC[C@H]2O (stereo partly specified) | 18.5 |

The compounds below were run on MCF7 (assay: Induction of apoptosis in human MCF7 cells assessed as progressive cell detachment at IC50 after 24 hrs by inverted phase contrast microscopic analysis). Conditions: not given.
Assay type: functional, cell-based

| SMILES | Activity |
| --- | --- |
| C=C1CC[C@@H]2[C@](C)(CO)[C@H](O)CC[C@@]2(C)[C@@H]1CC1CN(Cc2ccccc2)[C@@]2(C(=O)Nc3ccc(C)cc32)[C@]12C(=O)OC[C@H]2O (stereo partly specified) | Active |

Each compound was assayed on MCF7 (assay: Induction of apoptosis in human MCF7 cells assessed as polarized mitochondrial membrane at IC50 after 24 hrs by JC-1 dye based FACS analysis (reference value: 90%)). Conditions: not given.
Assay type: functional

| SMILES | Activity [%] |
| --- | --- |
| C=C1CC[C@@H]2[C@](C)(CO)[C@H](O)CC[C@@]2(C)[C@@H]1CC1CN(Cc2ccccc2)[C@@]2(C(=O)Nc3ccc(C)cc32)[C@]12C(=O)OC[C@H]2O (stereo partly specified) | 21 |

The compounds below were run on MCF7 (assay: Induction of apoptosis in human MCF7 cells assessed as late apoptotic cells at IC50 after 24 hrs by annexin V-FITC/propidium iodide staining based flow cytometric analysis (reference value: 0.0%)). Conditions: not given.
Assay type: functional

| SMILES | Activity [%] |
| --- | --- |
| C=C1CC[C@@H]2[C@](C)(CO)[C@H](O)CC[C@@]2(C)[C@@H]1CC1CN(Cc2ccccc2)[C@@]2(C(=O)Nc3ccc(C)cc32)[C@]12C(=O)OC[C@H]2O (stereo partly specified) | 0.6 |

What follows are compounds tested on MCF7 (assay: Induction of apoptosis in human MCF7 cells assessed as polarized mitochondrial membrane at IC50 after 48 hrs by JC-1 dye based FACS analysis (reference value: 90%)). Conditions: not given.
Assay type: functional

| SMILES | Activity [%] |
| --- | --- |
| C=C1CC[C@@H]2[C@](C)(CO)[C@H](O)CC[C@@]2(C)[C@@H]1CC1CN(Cc2ccccc2)[C@@]2(C(=O)Nc3ccc(C)cc32)[C@]12C(=O)OC[C@H]2O (stereo partly specified) | 11.1 |

These compounds were tested on MCF7 (assay: Induction of apoptosis in human MCF7 cells assessed as dead cells at IC50 after 24 hrs by annexin V-FITC/propidium iodide staining based flow cytometric analysis (reference value: 0.2%)). Conditions: not given.
Assay type: functional

| SMILES | Activity [%] |
| --- | --- |
| C=C1CC[C@@H]2[C@](C)(CO)[C@H](O)CC[C@@]2(C)[C@@H]1CC1CN(Cc2ccccc2)[C@@]2(C(=O)Nc3ccc(C)cc32)[C@]12C(=O)OC[C@H]2O (stereo partly specified) | 0.8 |

What follows are compounds tested on MCF7 (assay: Induction of apoptosis in human MCF7 cells assessed as increase in cleaved caspase-9 level at IC50 after 48 hrs by western blot analysis). Conditions: not given.
Assay type: functional, cell-based

| SMILES | Activity |
| --- | --- |
| C=C1CC[C@@H]2[C@](C)(CO)[C@H](O)CC[C@@]2(C)[C@@H]1CC1CN(Cc2ccccc2)[C@@]2(C(=O)Nc3ccc(C)cc32)[C@]12C(=O)OC[C@H]2O (stereo partly specified) | Active |

What follows are compounds tested on MCF7 (assay: Cell cycle arrest in human MCF7 cells assessed as accumulation at G2/M phase at IC50 after 24 hrs by propidium iodide staining based flow cytometric analysis (reference value: 24.2%)). Conditions: not given.
Assay type: functional

| SMILES | Activity [%] |
| --- | --- |
| C=C1CC[C@@H]2[C@](C)(CO)[C@H](O)CC[C@@]2(C)[C@@H]1CC1CN(Cc2ccccc2)[C@@]2(C(=O)Nc3ccc(C)cc32)[C@]12C(=O)OC[C@H]2O (stereo partly specified) | 29.1 |

What follows are compounds tested on MCF7 (assay: Induction of apoptosis in human MCF7 cells assessed as late apoptotic cells at IC50 after 48 hrs by annexin V-FITC/propidium iodide staining based flow cytometric analysis (reference value: 0.0%)). Conditions: not given.
Assay type: functional

| SMILES | Activity [%] |
| --- | --- |
| C=C1CC[C@@H]2[C@](C)(CO)[C@H](O)CC[C@@]2(C)[C@@H]1CC1CN(Cc2ccccc2)[C@@]2(C(=O)Nc3ccc(C)cc32)[C@]12C(=O)OC[C@H]2O (stereo partly specified) | 1.5 |

What follows are compounds tested on MCF7 (assay: Cytotoxicity against human MCF7 cells assessed as growth inhibition after 72 hrs by MTT assay). Conditions: MCF7, 72 h.
Assay type: functional, cell-based

| SMILES | IC50 [µM] |
| --- | --- |
| C=C1CC[C@@H]2[C@](C)(CO)[C@H](O)CC[C@@]2(C)[C@@H]1CC1CN(Cc2ccccc2)[C@@]2(C(=O)Nc3ccc(C)cc32)[C@]12C(=O)OC[C@H]2O (stereo partly specified) | 10.9 |

These compounds were tested on MCF7 (assay: Induction of apoptosis in human MCF7 cells assessed as increase in cleaved caspase-7 level at IC50 after 48 hrs by western blot analysis). Conditions: not given.
Assay type: functional, cell-based

| SMILES | Activity |
| --- | --- |
| C=C1CC[C@@H]2[C@](C)(CO)[C@H](O)CC[C@@]2(C)[C@@H]1CC1CN(Cc2ccccc2)[C@@]2(C(=O)Nc3ccc(C)cc32)[C@]12C(=O)OC[C@H]2O (stereo partly specified) | Active |

These compounds were tested on MCF7 (assay: Induction of apoptosis in human MCF7 cells assessed as depolarized mitochondrial membrane at IC50 after 24 hrs by JC-1 dye based FACS analysis (reference value: 10%)). Conditions: not given.
Assay type: functional

| SMILES | Activity [%] |
| --- | --- |
| C=C1CC[C@@H]2[C@](C)(CO)[C@H](O)CC[C@@]2(C)[C@@H]1CC1CN(Cc2ccccc2)[C@@]2(C(=O)Nc3ccc(C)cc32)[C@]12C(=O)OC[C@H]2O (stereo partly specified) | 79 |

What follows are compounds tested on MCF7 (assay: Induction of apoptosis in human MCF7 cells assessed as viable cells at IC50 after 48 hrs by annexin V-FITC/propidium iodide staining based flow cytometric analysis (reference value: 99.8%)). Conditions: not given.
Assay type: functional

| SMILES | Activity [%] |
| --- | --- |
| C=C1CC[C@@H]2[C@](C)(CO)[C@H](O)CC[C@@]2(C)[C@@H]1CC1CN(Cc2ccccc2)[C@@]2(C(=O)Nc3ccc(C)cc32)[C@]12C(=O)OC[C@H]2O (stereo partly specified) | 77.8 |

These compounds were tested on MCF7 (assay: Cell cycle arrest in human MCF7 cells assessed as accumulation at S phase at IC50 after 24 hrs by propidium iodide staining based flow cytometric analysis (reference value: 16.3%)). Conditions: not given.
Assay type: functional

| SMILES | Activity [%] |
| --- | --- |
| C=C1CC[C@@H]2[C@](C)(CO)[C@H](O)CC[C@@]2(C)[C@@H]1CC1CN(Cc2ccccc2)[C@@]2(C(=O)Nc3ccc(C)cc32)[C@]12C(=O)OC[C@H]2O (stereo partly specified) | 28.5 |

These compounds were tested on MCF7 (assay: Induction of apoptosis in human MCF7 cells assessed as depolarized mitochondrial membrane at IC50 after 48 hrs by JC-1 dye based FACS analysis (reference value: 10%)). Conditions: not given.
Assay type: functional

| SMILES | Activity [%] |
| --- | --- |
| C=C1CC[C@@H]2[C@](C)(CO)[C@H](O)CC[C@@]2(C)[C@@H]1CC1CN(Cc2ccccc2)[C@@]2(C(=O)Nc3ccc(C)cc32)[C@]12C(=O)OC[C@H]2O (stereo partly specified) | 88.9 |

What follows are compounds tested on MCF7 (assay: Cell cycle arrest in human MCF7 cells assessed as accumulation at G2/M phase at IC50 after 48 hrs by propidium iodide staining based flow cytometric analysis (reference value: 24.2%)). Conditions: not given.
Assay type: functional

| SMILES | Activity [%] |
| --- | --- |
| C=C1CC[C@@H]2[C@](C)(CO)[C@H](O)CC[C@@]2(C)[C@@H]1CC1CN(Cc2ccccc2)[C@@]2(C(=O)Nc3ccc(C)cc32)[C@]12C(=O)OC[C@H]2O (stereo partly specified) | 19.4 |

Each compound was assayed on MCF7 (assay: Cell cycle arrest in human MCF7 cells assessed as accumulation at G0/G1 phase at IC50 after 24 hrs by propidium iodide staining based flow cytometric analysis (reference value: 59.5%)). Conditions: not given.
Assay type: functional

| SMILES | Activity [%] |
| --- | --- |
| C=C1CC[C@@H]2[C@](C)(CO)[C@H](O)CC[C@@]2(C)[C@@H]1CC1CN(Cc2ccccc2)[C@@]2(C(=O)Nc3ccc(C)cc32)[C@]12C(=O)OC[C@H]2O (stereo partly specified) | 42.4 |

These compounds were tested on MCF7 (assay: Cell cycle arrest in human MCF7 cells assessed as accumulation at S phase at IC50 after 48 hrs by propidium iodide staining based flow cytometric analysis (reference value: 16.3%)). Conditions: not given.
Assay type: functional

| SMILES | Activity [%] |
| --- | --- |
| C=C1CC[C@@H]2[C@](C)(CO)[C@H](O)CC[C@@]2(C)[C@@H]1CC1CN(Cc2ccccc2)[C@@]2(C(=O)Nc3ccc(C)cc32)[C@]12C(=O)OC[C@H]2O (stereo partly specified) | 41.7 |

Each compound was assayed on MCF7 (assay: Induction of ROS generation in human MCF7 cells at IC50 after 24 hrs by CM-H2DCFDA staining based flow cytometric analysis (reference value: 12.6%)). Conditions: not given.
Assay type: functional

| SMILES | Activity [%] |
| --- | --- |
| C=C1CC[C@@H]2[C@](C)(CO)[C@H](O)CC[C@@]2(C)[C@@H]1CC1CN(Cc2ccccc2)[C@@]2(C(=O)Nc3ccc(C)cc32)[C@]12C(=O)OC[C@H]2O (stereo partly specified) | 99.9 |
